Assay results reported in patent publication US20240391880A1, “KCa3.1 INHIBITORS FOR PODOCYTE PROTECTION” (Icahn School of Medicine at Mount Sinai, priority 2021, published 2024).
Entries after “also recorded” stand apart in the source; their conditions may differ.

Key:
YAP knockdown podocytes = test: Rescue of YAP knockdown podocyte morphology (phalloidin/paxillin staining); assay type: cell-based, mouse
Protocol: Podocytes were cultured as previously described (2, 14, 35). Briefly, conditionally immortalized murine podocytes were cultured in Dulbecco's modified Eagle's medium (DMEM; Life Technologies) supplemented with 10% heat-inactivated fetal bovine serum (Life Technologies) and 100 U/mL penicillin-streptomycin (Life Technologies) on type I collagen (Corning, Corning, NY) coated dishes or flasks. Undifferentiated podocytes were maintained at 33° C. in the presence of 10 U/mL mouse γ-interferon (Cell Sciences, Canton, MA) to drive T-antigen expression. To induce differentiation, podocytes were thermo-shifted to a 37° C. incubator and switched to medium lacking γ-interferon.
The pLKO.1 plasmids (YAP shRNA or control shRNA) along with the helper plasmids psPAX^2 and pMD2.G were transfected into HEK293T cells at 70% confluence using FuGENE 6 (Promega). Medium was replaced 16-18 h after transfection. 36 and 60 h after transfection, virus-containing supernatants were harvested and centrifuged at 3,000 rpm for 5 min. Viral particles were then passed through a 0.45-μm filter. The supernatants were subsequently used for the infection of target cells in the presence of 4 μg/ml Polybrene (Sigma). […]
Changes in the organization of the actin cytoskeleton were assessed by phalloidin staining and paxillin staining as described previously. […]

KCa3.1 [1] = molecular target: T1, KCa3.1 (Mus musculus, UniProt O89109); test: Whole-cell patch clamp electrophysiology in YAP silenced podocytes; assay type: cell-based
T1 construct: endogenous in cells; host or cells: YAP shRNA (YAP KD) conditionally immortalized mouse podocytes
Protocol: (§1) Cells plated on coverslips are transferred to a submersion recording chamber and continuously perfused (2-4 ml/min) with RPMI cell culture medium containing (in mM): NaCl 124, KCl 2.5, NaH2PO4 1.2, NaHCO3 24, HEPES 5, glucose 12.5, MgSO4 2, and CaCl2 2, pH 7.4. The solution is continuously bubbled with 95% O2/5% CO2, and recordings are obtained at 25±1° C. Cells are recorded under infrared differential contrast optics (BX51; Olympus). After control readings are measured, the solution is then switched to the solutions containing the molecules. […] Recording pipettes (3-5 MΩ), pulled from borosilicate glass, are filled with internal solution containing (in mM): K gluconate 120, HEPES 10, KCl 20, MgCl2 1, MgATP 2, Na2GTP 0.5, Na-phosphocreatine 10, CaCl2 1.71 and EGTA 2, pH 7.25. Data are acquired with a Multiclamp 700 A amplifier (Molecular Devices), subsequently filtered at 10 kHz and digitized at 10 kHz, and analysis is performed with pClamp 11 software (Molecular Devices). Whole-cell data will be collected. All data will be recorded at room temperature.

KCa3.1 [2] = molecular target: T2, KCa3.1 (Homo sapiens, UniProt O15554); test: Whole-cell patch clamp electrophysiology in KCNN4 overexpression podocytes; assay type: cell-based, mouse; conditions: KCNN4 OE podocytes
T2 construct: expressed in transfected cells; host or cells: immortalized mouse podocytes (KCNN4 OE)
Protocol: as §1

YAP KD podocytes = test: Intracellular calcium dynamics in YAP KD podocytes (Fluo-3, ATP stimulation); assay type: cell-based, mouse; conditions: for CaD50 / time to peak of calcium uptake: YAP silenced podocytes, upon ATP stimulation
Protocol: Intracellular calcium dynamics were measured in wild type and YAP KD podocytes loaded with Fluo-3, stimulated with ATP ([…]) and imaged for 3 minutes at 1 frame per 0.5 seconds on a high-speed Zeiss 880 laser scanning confocal microscope with automated CO2incubator stage.
Isolated cells were superfused with Tyrode solution containing (mm): NaCl 140, KCl
5, Hepes 5, NaH2PO4 1, MgCl2 1, CaCl2 1.8, glucose 10 (pH 7.4). To allow for confocal imaging of [Ca^2+]i, cells were loaded for 30 min with 5 μm fluo-3 AM (Molecular Probes, Eugene, OR, USA), then washed and stored for 20 min in Tyrode solution to enable dye de-esterification. Confocal imaging in line-scan mode was performed on a Zeiss 510 microscope. Cells were scanned with light at 488 nm from an argon-ion laser, and fluorescence above 505 nm was recorded. To generate repeated Ca^2+ sparks at a limited number of locations, 50 nm ryanodine (Calbiochem, San Diego, CA, USA) was added to the external solution.

podocytes = test: LPS-induced podocyte injury in vitro; assay type: cell-based, mouse; conditions: LPS 100 μg/ml for 24 hrs, co-treatment
Protocol: (§2) The ability of KCa3.1 inhibitors to protect from podocyte injury induced by lipopolysaccharide (LPS) was tested in vitro and in vivo. […] The protective effect was tested in vivo by administering LPS to 8-week old C57BL/6J mice at 0 hr and 24 hrs.
Differentiated podocytes were exposed to different doses of LPS (50-100 μg/ml) for 24 hours. Changes in the organization of the actin cytoskeleton were assessed by phalloidin staining and paxillin staining as described previously. Each set of experiments was repeated at least three times. Briefly, cells were fixed with 4% PFA, 4% sucrose in PBS at room temperature for 15 minutes and then permeabilized with 0.3% Triton X-100 in PBS with washes in between. Coverslips were washed 3× with PBS and incubated blocking solution (2% FCS, 2% BSA, 0.2% fish gelatin) for 30 minutes at room temperature before further incubation with one of the primary antibodies for 1 hour at room temperature. For double labeling, sections were washed three times with PBS for 5 minutes, and the second primary antibody was applied for 60 minutes. Antigen-antibody complexes were visualized with secondary antibodies 1:500 (Life Technologies) conjugated with fluorochrome (Alexa 488, Alexa 594, or Alexa 647) for 1 hour at room temperature. For stress fibers, phalloidin-rhodamine was used. For the nuclei, we used DAPI. Confocal microscopy with Leica DMI was done.

C57BL/6J mice = test: LPS-induced glomerular disease in mice; assay type: in vivo, mouse; conditions: for albuminuria: 48 hours after LPS injection, compound given at 12 hr and 24 hr
Protocol: as §2
Albuminuria was qualitatively screened using a 10% SDS-PAGE gel followed by Coomassie-blue staining. BSA standards of 0.1, 0.5, 5 μg were used and 5 μl urine was used from each sample to quantify urine albumin in duplicate using commercial kits, according to the manufacturer's protocol (mouse albumin ELISA, Bethyl Laboratories).

[3] = expected K+ equilibrium (VK) calculated at -83 mV

| KCa3.1 conductance (KCa3.1 [1]) | KCa3.1 conductance (KCa3.1 [2]) | stimuli to peak (YAP KD podocytes; YAP knockdown cells, 5uM and 10 uM) | CaD50 (YAP KD podocytes) | time to peak of calcium uptake (YAP KD podocytes) | SMILES | rescue from focal adhesion loss and F-actin reorganization (YAP knockdown podocytes) | crossover potential of before and after I-V plots (KCa3.1 [1]; [3]) | LPS-induced actin cytoskeletal reorganization and loss of focal adhesions (podocytes) | albuminuria (C57BL/6J mice) | foot process injury (scanning EM) (C57BL/6J mice; LPS treated mice) | crossover potential of before and after I-V plots (KCa3.1 [2]; [3]) |
| --- | --- | --- | --- | --- | --- | --- | --- | --- | --- | --- | --- |
| decreased KCa3.1 conductance | decreased KCa3.1 conductance | significantly decreased | decreased | decreased | Brc1ccccc1-c1nc2ccccc2[nH]1 [BT563, 2-(2-bromophenyl)-1H-benzo[d]imidazole] | most consistently rescued | closer to the expected K+ equilibrium (VK) | abrogated | statistically significant decrease; also recorded: decreased albuminuria | not seen; also recorded: rescue of LPS-induced podocyte foot process disruption |  |
| decreased KCa3.1 conductance | decreased KCa3.1 conductance |  | decreased | decreased | Cc1ccn2cc(-c3ccccc3)nc2c1 [BT564, 7-methyl-2-phenylimidazo[1,2-α]pyridine] | most consistently rescued |  | abrogated | not |  |  |
| enhanced | enhanced |  |  |  | Cc1cc2nc(N)oc2c2ccccc12 [SKA121, reference compound] |  |  |  |  |  |  |

| SMILES | KCa3.1 conductance (KCa3.1 [1]) | KCa3.1 conductance (KCa3.1 [2]) | stimuli to peak (YAP KD podocytes; YAP knockdown cells, 5uM and 10 uM) | CaD50 (YAP KD podocytes) | time to peak of calcium uptake (YAP KD podocytes) | rescue from focal adhesion loss and F-actin reorganization (YAP knockdown podocytes) | crossover potential of before and after I-V plots (KCa3.1 [1]; [3]) | LPS-induced actin cytoskeletal reorganization and loss of focal adhesions (podocytes) | albuminuria (C57BL/6J mice) | foot process injury (scanning EM) (C57BL/6J mice; LPS treated mice) | crossover potential of before and after I-V plots (KCa3.1 [2]; [3]) |
| --- | --- | --- | --- | --- | --- | --- | --- | --- | --- | --- | --- |
| Clc1ccccc1C(c1ccccc1)(c1ccccc1)n1cccn1 [TRAM-34, reference compound] | decreased | decreased |  | decreased | decreased |  |  |  |  |  | did cross at the expected K+ equilibrium |
